Test results reported in US7419966B2, “[5-carboxamido or 5-fluoro]-[2′,3′-unsaturated or 3′-modified]-pyrimidine nucleosides” (Emory University, priority 1995, dated 2008).
Where two headings read alike, the source gives them in different places.

Key:
Format in all cases: cell-based
[1] = system: hepatitis B virus in transfected HepG-2 (2.2.15) cells; test: Anti-HBV activity in 2.2.15 cell cultures (HBV virion DNA and replicative intermediates); settings: for EC50 / EC90: Table 2, day 9; for activity against HBV, in words: text b71, b81
Experimental: The ability of the active compounds to inhibit the growth of virus in 2.2.15 cell cultures (HepG2 cells transformed with hepatitis virion) can be evaluated as described in detail below.
A summary and description of the assay for antiviral effects in this culture system and the analysis of HBV DNA has been described (Korba and Milman, 1991, Antiviral Res., 15:217). The antiviral evaluations were performed on two separate passages of cells. All wells, in all plates, were seeded at the same density and at the same time.
Due to the inherent variations in the levels of both intracellular and extracellular HBV DNA, only depressions greater than 3.5-fold (for HBV virion DNA) or 3.0-fold (for HBV DNA replication intermediates) from the average levels for these HBV DNA forms in untreated cells are considered to be statistically significant [P<0.05]. The levels of integrated HBV DNA in each cellular DNA preparation (which remain constant on a per cell basis in these experiments) were used to calculate the levels of intracellular HBV DNA forms, thereby ensuring that equal amounts of cellular DNA were compared between separate samples.
Typical values for extracellular HBV virion DNA in untreated cells ranged from 50 to 150 pg/ml culture medium (average of approximately 76 pg/ml). Intracellular HBV DNA replication intermediates in untreated cells ranged from 50 to 100 pg/μg cell DNA (average approximately 74 pg/μg cell DNA). In general, depressions in the levels of intracellular HBV DNA due to treatment with antiviral compounds are less pronounced, and occur more slowly, than depressions in the levels of HBV virion DNA (Korba and Milman, 1991, Antiviral Res., 15:217).

[2] = system: 2.2.15 cells (HepG2 cells transformed with hepatitis virion); test: Toxicity in 2.2.15 cells by neutral red dye uptake; settings: for toxicity, in words: HBV assay; for IC50: Table 2, 2.2.15 cells, read-out: Cytotoxicity IC50 ± SD
Experimental: Toxicity analyses were performed to assess whether any observed antiviral effects were due to a general effect on cell viability. The method used herein was the measurement of the uptake of neutral red dye, a standard and widely used assay for cell viability in a variety of virus-host systems, including HSV and HIV. Toxicity analyses were performed in 96-well flat bottomed tissue culture plates. Cells for the toxicity analyses were cultured and treated with test compounds with the same schedule as described for the antiviral evaluations below. Each compound was tested at 4 concentrations, each in triplicate cultures (wells “A”, “B”, and “C”). Uptake of neutral red dye was used to determine the relative level of toxicity. The absorbance of internalized dye at 510 nm (Asin) was used for the quantitative analysis. Values are presented as a percentage of the average Asin values in 9 separate cultures of untreated cells maintained on the same 96-well plate as the test compounds. Dye uptake in the 9 control cultures on plate 5 ranged from 91.6% to 110.4%, and on plate 6 from 96.6% to 109%.

HIV-1 (strain LAV) = test: Anti-HIV-1 activity in PHA-stimulated human PBM cells (reverse transcriptase readout); settings: Table 1; HIV-1LAI; human PBM cells; estimated 10% error factor; read-out: Anti-HIV-1 in PBMC EC50
Experimental: The ability of nucleosides to inhibit HIV can be measured by various experimental techniques. The technique used herein, and described in detail below, measures the inhibition of viral replication in phytohemagglutinin (PHA) stimulated human peripheral blood mononuclear (PBM) cells infected with HIV-1. (strain LAV). The amount of virus produced is determined by measuring the virus-coded reverse transcriptase enzyme. The amount of enzyme produced is proportional to the amount of virus produced.
Three-day-old phytohemagglutinin-stimulated PBM cells (10^6 cells/ml) from hepatitis B and HIV-1 seronegative healthy donors were infected with HIV-1 (strain LAV) at a concentration of about 100 times the 50% tissue culture infectious dose (TICD 50) per ml and cultured in the presence and absence of various concentrations of antiviral compounds.
Approximately one hour after infection, the medium, with the compound to be tested (2 times the final concentration in medium) or without compound, was added to the flasks (5 ml; final volume 10 ml). AZT was used as a positive control.
The cells were exposed to the virus (about 2×10^5 dpm/ml, as determined by reverse transcriptase assay) and then placed in a CO2 incubator. HIV-1 (strain LAV) was obtained from the Center for Disease Control, Atlanta, Ga. The methods used for culturing the PBM cells, harvesting the virus and determining the reverse transcriptase activity were those described by McDougal et al. (J. Immun. Meth. 76, 171-183, 1985) and Spira et al. (J. Clin. Meth. 25, 97-99, 1987), except that fungizone was not included in the medium (see Schinazi, et al., Antimicrob. Agents Chemother. 32, 1784-1787 (1988); Id., 34:1061-1067 (1990)).
On day 6, the cells and supernatant were transferred to a 15 ml tube and centrifuged at about 900 g for 10 minutes. Five ml of supernatant were removed and the virus was concentrated by centrifugation at 40,000 rpm for 30 minutes (Beckman 70.1 Ti rotor). The solubilized virus pellet was processed for determination of the levels of reverse transcriptase. Results are expressed in dpm/ml of sampled supernatant. Virus from smaller volumes of supernatant (1 ml) can also be concentrated by centrifugation prior to solubilization and determination of reverse transcriptase levels.

Vero cells = test: Toxicity in Vero cells; settings: Table 1
[3] = system: uninfected human PBM cells; test: Toxicity in mitogen-stimulated uninfected human PBM cells (cell count, trypan blue exclusion); settings: Table 1; uninfected human PBM cells, 6 days
Experimental: Mitogen stimulated uninfected human PBM cells (3.8×10^5 cells/ml) were cultured in the presence and absence of drug under similar conditions as those used for the antiviral assay described above. The cells were counted after 6 days using a hemacytometer and the trypan blue exclusion method, as described by Schinazi et al., Antimicrobial Agents and Chemotherapy, 22(3), 499 (1982). […]

CEM cells = test: Toxicity in CEM cells; settings: Table 1
HSV-1F = test: Anti-HSV-1 activity in Vero cells; settings: Table 1
HIV-2ROD2 = test: Anti-HIV-2 activity in PBMC; settings: Table 1 footnote b; read-out: EC50 against HIV-2ROD2
SIVSMM = test: Anti-SIV activity in PBMC; settings: Table 1 footnote b; read-out: EC50 against SIVSMM
[4] = extracellular DNA, untreated control 102 pg/ml, read-out: HBV virion EC50 ± SD
[5] = extracellular DNA, untreated control 102 pg/ml, read-out: HBV virion EC90 ± SD
[6] = replicative intermediates (intracellular DNA), untreated control 87 pg/μg cell DNA, read-out: HBV RI EC50 ± SD
[7] = replicative intermediates (intracellular DNA), untreated control 87 pg/μg cell DNA, read-out: HBV RI EC90 ± SD

5-carboxylic acid amide-2′,3′-dideoxy-3′-thiacytidine [C Carboxamide (+)-β-D]
EC50 [1, 4]: 0.11 ± 0.012 µM | EC90 [1, 5]: 0.9 ± 0.1 µM | EC50 [1, 6]: 0.5 ± 0.04 µM | EC90 [1, 7]: 3.8 ± 0.3 µM | activity against HBV, in words [1]: significant activity against HBV | toxicity, in words [2]: relatively nontoxic | IC50 [2]: 1120 ± 72 µM | EC50 (HIV-1 (strain LAV)): 8.5 µM

Nc1cn([C@@H]2CS[C@H](CO)O2)c(=O)nc1N (racemic) [C Amino (±)-β-DL]
IC50 (Vero cells): > 100 µM | EC50 (HIV-1 (strain LAV)): 26.4 µM | IC50 [3]: > 100 µM | IC50 (CEM cells): > 100 µM

N#Cc1cn([C@@H]2CS[C@H](CO)O2)c(=O)nc1N (racemic) [C Cyano (±)-β-DL]
IC50 (Vero cells): > 100 µM | EC50 (HIV-1 (strain LAV)): > 100 µM | IC50 [3]: > 100 µM | IC50 (CEM cells): > 100 µM

CCc1cn([C@@H]2CS[C@H](CO)O2)c(=O)nc1N (racemic) [C Ethyl (±)-β-DL]
IC50 (Vero cells): > 100 µM | EC50 (HIV-1 (strain LAV)): 102 µM | IC50 [3]: > 100 µM | IC50 (CEM cells): > 100 µM

C#Cc1cn([C@@H]2CS[C@H](CO)O2)c(=O)nc1N (racemic) [C Ethynyl (±)-β-DL]
IC50 (Vero cells): > 100 µM | EC50 (HIV-1 (strain LAV)): > 100 µM | IC50 [3]: > 100 µM | IC50 (CEM cells): > 100 µM

COC(=O)c1cn(C2CSC(CO)O2)c(=O)nc1N (racemic) [C Methoxycarbonyl (±)-β-DL, 5-carboxylic acid methyl ester-2′,3′-dideoxy-3′-thiacytidine]
IC50 (Vero cells): > 100 µM | EC50 (HIV-1 (strain LAV)): 38.9 µM | IC50 [3]: > 100 µM | IC50 (CEM cells): > 100 µM

CN(C)C(=O)c1cn([C@@H]2CS[C@H](CO)O2)c(=O)nc1N (racemic) [C N,N-Dimethylaminoformyl (±)-β-DL]
IC50 (Vero cells): > 100 µM | EC50 (HIV-1 (strain LAV)): > 100 µM | IC50 [3]: > 100 µM | IC50 (CEM cells): > 100 µM

CNC(=O)c1cn([C@@H]2CS[C@H](CO)O2)c(=O)nc1N (racemic) [C N-Methylaminoformyl (±)-β-DL]
IC50 (Vero cells): > 100 µM | EC50 (HIV-1 (strain LAV)): > 100 µM | IC50 [3]: > 100 µM | IC50 (CEM cells): > 100 µM

Nc1nc(=O)n([C@@H]2CS[C@H](CO)O2)cc1[N+](=O)[O-] (racemic) [C Nitro (±)-β-DL]
IC50 (Vero cells): > 100 µM | EC50 (HIV-1 (strain LAV)): 100 µM | IC50 [3]: > 100 µM | IC50 (CEM cells): > 100 µM

Nc1cn([C@@H]2CS[C@H](CO)O2)c(=O)[nH]c1=O (racemic) [U Amino (±)-β-DL]
IC50 (Vero cells): > 100 µM | EC50 (HIV-1 (strain LAV)): 119 µM | IC50 [3]: > 100 µM | IC50 (CEM cells): > 100 µM

NC(=O)c1cn([C@@H]2CS[C@H](CO)O2)c(=O)[nH]c1=O (racemic) [U Carboxamide (±)-β-DL, 5-carboxamide-2′,3′-dideoxy-3′-thiauridine]
IC50 (Vero cells): > 100 µM | EC50 (HIV-1 (strain LAV)): > 100 µM | IC50 [3]: > 100 µM | IC50 (CEM cells): > 100 µM

N#Cc1cn([C@@H]2CS[C@H](CO)O2)c(=O)[nH]c1=O (racemic) [U Cyano (±)-β-DL]
EC50 (HIV-1 (strain LAV)): > 100 µM | IC50 [3]: > 100 µM | IC50 (CEM cells): > 100 µM

CCc1cn([C@@H]2CS[C@H](CO)O2)c(=O)[nH]c1=O (racemic) [U Ethyl (±)-β-DL]
IC50 (Vero cells): > 100 µM | EC50 (HIV-1 (strain LAV)): > 100 µM | IC50 [3]: > 100 µM | IC50 (CEM cells): > 100 µM

C#Cc1cn([C@@H]2CS[C@H](CO)O2)c(=O)[nH]c1=O (racemic) [U Ethynyl (±)-β-DL]
IC50 (Vero cells): > 100 µM | EC50 (HIV-1 (strain LAV)): 23.8 µM | IC50 [3]: > 100 µM | IC50 (CEM cells): > 100 µM

COC(=O)c1cn([C@@H]2CS[C@H](CO)O2)c(=O)[nH]c1=O (racemic) [U Methoxycarbonyl (±)-β-DL]
IC50 (Vero cells): > 100 µM | EC50 (HIV-1 (strain LAV)): > 100 µM | IC50 [3]: > 100 µM | IC50 (CEM cells): > 100 µM | EC50 (HSV-1F): > 100 µM

O=c1[nH]c(=O)n([C@@H]2CS[C@H](CO)O2)cc1[N+](=O)[O-] (racemic) [U Nitro (±)-β-DL]
IC50 (Vero cells): > 100 µM | EC50 (HIV-1 (strain LAV)): 122 µM | IC50 [3]: > 100 µM | IC50 (CEM cells): > 100 µM

Nc1nc2c(ncn2COCCO)c(=O)[nH]1 [Acyclovir, reference compound]
EC50 (HSV-1F; Human alphaherpesvirus 1, Vero): 0.04 µM

NC(=O)c1cn([C@@H]2CS[C@H](CO)O2)c(=O)nc1N [C Carboxamide (−)-β-L, 5-carboxylic acid amide-2′,3′-dideoxy-3′-thiacytidine]
IC50 (Vero cells): > 100 µM | EC50 [1, 4]: 0.29 ± 0.02 µM | EC90 [1, 5]: 1.5 ± 0.2 µM | EC50 [1, 6]: 1.3 ± 0.1 µM | EC90 [1, 7]: 9.9 ± 0.8 µM | activity against HBV, in words [1]: significant activity against HBV | toxicity, in words [2]: relatively nontoxic | IC50 [2]: 1750 ± 212 µM | EC50 (HIV-1 (strain LAV)): 3.6 µM | EC50 (HIV-2ROD2): 1.6 µM | IC50 [3]: > 100 µM | IC50 (CEM cells): > 100 µM | EC50 (SIVSMM): 4 µM
